# US20240091244A1, “PHARMACEUTICAL COMPOSITIONS COMPRISING PICROSIDE” (SAVA HEALTHCARE LIMITED, priority 2021, published 2024)
# How the values were obtained:
# [1] = tested on: mice with cyclophosphamide induced neutropenia; assay: Administration of Picroside I / Picroside II (injectable, subcutaneous) to mice with cyclophosphamide induced neutropenia; assay type: in vivo, Swiss albino mice; conditions: for changes in body weight / clinical signs of toxicity and mortality: 1 mg/mouse/day subcutaneous for 5 days; for Total leukocyte count on Day 10 as compared to Group 2 / neutrophil count on Day 10 as compared to Group 2 / % Neutrophil (day 10) / neutrophil count compared with Group 1 (Normal control): 1 mg/mouse/day subcutaneous; for Total leukocyte count on Day 10 as compared to Group 2 / neutrophil count on Day 10 as compared to Group 2 / % Neutrophil (day 10): day 5 to day 10; for % Neutrophil (day 10) / neutrophil count compared with Group 1 (Normal control): day 10; for neutrophil count compared with Group 1 (Normal control): P<0.01; for % Neutrophil (day 3): day 3 after cyclophosphamide 150 mg/kg ip, before treatment (baseline of the group); for reversal of cyclophosphamide induced neutropenia: injection
# Method: (§1) In-house bred Swiss albino mice were housed under standard laboratory conditions, such as, air-conditioned with adequate fresh air supply (air changes 12-15 per hour), room temperature of 21.1-23.2° C. and relative humidity of 55-69%, with 12 hours light and 12 hours dark cycle were strictly maintained in the experimental room. The mice were acclimatized for a minimum period of seven days to laboratory conditions.
# (§2) The selected Swiss albino mice were randomized into four groups based on body weight, each group comprising of 6 mice. Group 2 and 3, 4 animals were treated with 150 mg/kg of cyclophosphamide through intraperitoneal route on Day 0 to initiate inducing neutropenia. On Day 3, the animals of group 2, 3 and 4, reflected the cyclophosphamide induced neutropenication when compared with Group 1 (Control) mice. On day 4, mice from Groups 2, 3 and 4 were again injected with a single dose of 100 mg/kg of cyclophosphamide. Total and differential count (neutrophils, lymphocytes, and monocytes) was recorded on day 3. The neutrophil count on day 3 was compared between groups using One-way ANOVA followed by Dunnett's test or student ‘t’ test. P<0.05 was considered statistically significant.
# Cyclophosphamide related neutropenia was induced in mice subjects using method according to Example 6. Injectable composition was prepared using the method according to Example 5. The Picroside I composition was administered through subcutaneous route at a dose of 1 mg/mouse/day to the animals in Group 3 for 5 days respectively starting from day 5 ending at day 10. Picroside II composition was administered through subcutaneous route at a dose of 1 mg/mouse/day to the animals in Group 4 for 5 days respectively starting from day 5 ending at day 10. On day 10, again blood was collected to count the total leucocyte count and differential count (neutrophils, lymphocytes, and monocytes) manually. The neutrophil count on day 10 was compared between groups using One-way ANOVA followed by Dunnett's test or student ‘t’ test. P<0.05 was considered statistically significant.
# [2] = Stability analysis of injectable composition of Picroside I and 2.5% PEG400 by HPLC quantitative analysis; assay type: physicochemical; conditions: 1 mg Picroside I in 2.5% PEG400; for % Result (1 month): HPLC 220 nm
# Method: The purified Picroside I prepared by the methods according to Example 1, 2, and 3 was used for the said injection composition. Injection preparation was prepared by dissolving 1 mg Picroside I in solvent, controlling pH to about 4-land then filling in ampules followed by subsequent sterilizing by conventional injection preparation method. For comparative compositions, different solvents such as methanol, 2.5% PEG400, 5% PEG400, 5% DMSO, 5% ethyl lactate, and 1.4% propylene glycol were used for Picroside I solubility.
# The solutions were kept for sonication for 15 min and left the solutions stand at room temperature for 1 hour. HPLC was used for quantitative analysis.
# Three compositions of 1 mg Picroside I and 2.5% PEG400 were kept for sonication for 15 min and left to stand at room temperature (RT), 2-8° C. and 40° C., 75% RH for 1 month. and injected (20 μL) into HPLC at 220 nm for quantitative analysis.
# [3] = tested on: cyclophosphamide induced hepatotoxicity; assay: Effect in cyclophosphamide induced hepatotoxicity (AST and ALT levels); assay type: in vivo, Swiss albino mice; conditions: for ALT (IU/L) / AST (IU/L): day 5 to day 10, Picroside I 1 mg/mouse/day, G-CSF 2 μg/mouse/day, cyclophosphamide treated mice
# Method: as §2
# (§3) Cyclophosphamide related neutropenia was induced in mice subjects using method according to Example 6. Group 1 was marked vehicle control group, Group 2 was marked cyclophosphamide control, Group 3 was marked treated with Picroside I and Group 4 was marked treated with G-CSF treated. The Picroside I composition was administered through subcutaneous route at a dose of 1 mg/mouse/day to the animals in Group 3 for 5 days respectively starting from day 5 ending at day 10. The G-CSF composition was administered through subcutaneous route at a dose of 2 μg/mouse/day to the animals in Group 4 for 5 days respectively starting from day 5 ending at day 10. On day 10, again blood was collected to count the total leucocyte count and differential count (neutrophils, lymphocytes, and monocytes) manually. The neutrophil count on day 10 was compared between groups using One-way ANOVA followed by Dunnett's test or student ‘t’ test. P<0.05 was considered statistically significant. Additionally, hepatotoxicity was observed by investigating ALT and AST levels.
# [4] = tested on: mice with cyclophosphamide induced neutropenia; assay: Administration of Picroside I (oral tablets) to mice with cyclophosphamide induced neutropenia; assay type: in vivo, Swiss albino mice; conditions: for Neutrophil (10^9/L) (day 10) / WBC (10^9/L) (day 10): day 5 to day 10; for Neutrophil (10^9/L) (day 3) / WBC (10^9/L) (day 3): day 3, before treatment (baseline)
# Method: as §1, §2
# Cyclophosphamide related neutropenia was induced in mice subjects using method according to Example 6. Oral tablet composition was prepared using the method according to Example 4. The Picroside I composition was administered orally at a dose of 2 mg/mouse/day (2 tablets) to the animals in Group 1 and Group 2 for 5 days respectively starting from day 5 ending at day 10. For a comparative study, oral composition was administered using distilled water and PEG. Specifically, oral tablets were administered in distilled water to mice in Group 1 and in 5% PEG to mice in Group 2. On day 10, again blood was collected to count the total leucocyte count and differential count (neutrophils, lymphocytes, and monocytes) manually. The neutrophil count on day 10 was compared between groups using One-way ANOVA followed by Dunnett's test or student ‘t’ test. P<0.05 was considered statistically significant.
# [5] = tested on: mice with cyclophosphamide induced neutropenia; assay: Comparative administration of Picroside I and G-CSF to mice with cyclophosphamide induced neutropenia; assay type: in vivo, Swiss albino mice; conditions: for % Neutrophil (day 0): day 0, before cyclophosphamide (baseline of the group); for % Neutrophil (day 3): day 3 after cyclophosphamide, before treatment; for % Neutrophil (day 10): Picroside I 1 mg/mouse/day, G-CSF 2 μg/mouse/day
# Method: as §1, §2, §3
# [6] = 1 mg/mouse/day subcutaneous, p<0.001
# [7] = Picroside I 1 mg/mouse/day vs G-CSF 2 μg/mouse/day, subcutaneous
# [8] = 2 mg/mouse/day oral, in distilled water (Group 1) and in 5% PEG (Group 2)
# [9] = Group 1, 2 mg/mouse/day oral (2 tablets) in distilled water
# [10] = Group 1, tablets in distilled water
# [11] = Group 2, 2 mg/mouse/day oral (2 tablets) in 5% PEG
molecule,measurement,setting,value
COc1cc(C(=O)O[C@H]2[C@@H]3C=CO[C@@H](O[C@@H]4O[C@H](CO)[C@@H](O)[C@H](O)[C@H]4O)[C@@H]3[C@@]3(CO)O[C@@H]23)ccc1O [Picroside II],changes in body weight,[1],no treatment related changes in body weight
same,clinical signs of toxicity and mortality,[1],no clinical signs of toxicity and mortality
same,Total leukocyte count on Day 10 as compared to Group 2,[1],significant increase
same,neutrophil count on Day 10 as compared to Group 2,[1],significant increase
same,% Neutrophil (day 10),[1],32.83%
same,neutrophil count compared with Group 1 (Normal control),[1],increased neutrophil count significantly
same,% Neutrophil (day 3),[1],21.83%
same,reversal of cyclophosphamide induced neutropenia,[1],significantly reverses
O=C(/C=C/c1ccccc1)OC[C@H]1O[C@@H](O[C@@H]2OC=C[C@H]3[C@H](O)[C@@H]4O[C@]4(CO)[C@@H]23)[C@H](O)[C@@H](O)[C@@H]1O [Picroside I],stability over a period of 1 month,"[2]; RT, 2-8° C. and 40° C., 75% RH",excellent stability
same,% Result (1 month),[2]; stored at 2-8° C. for 1 month,96.59%
same,% Result (1 month),"[2]; stored at 40° C., 75% RH for 1 month",86.89%
same,% Result (1 month),[2]; stored at RT for 1 month,102.33%
same,changes in body weight,[1],no treatment related changes in body weight
same,clinical signs of toxicity and mortality,[1],no clinical signs of toxicity and mortality
same,Total leukocyte count on Day 10 as compared to Group 2,[1],significant increase
same,neutrophil count on Day 10 as compared to Group 2,[1],significant increase
same,% Neutrophil (day 10),[1],32.67%
same,neutrophil count compared with Group 1 (Normal control),[1],increased neutrophil count significantly
same,% Neutrophil (day 3),[1],20.83%
same,reversal of cyclophosphamide induced neutropenia,[1],significantly reverses
same,ALT levels when compared to the Group 2,[3]; [6],significant reversal
same,AST levels when compared to the Group 2,[3]; [6],significant reversal
same,decrease in AST and ALT relative to G-CSF treatment,[3]; [7],comparable
same,ALT (IU/L),[3]; subcutaneous,37.16 IU/L
same,AST (IU/L),[3]; subcutaneous,50.32 IU/L
same,changes in body weight,[4]; 2 mg/mouse/day oral for 5 days,no treatment related changes in body weight
same,clinical signs of toxicity and mortality,[4]; 2 mg/mouse/day oral for 5 days,no clinical signs of toxicity and mortality
same,Total leukocyte count on Day 10 as compared that on Day 3,[4]; [8],significant increase
same,neutrophil count on Day 10 as compared that on Day 3,[4]; [8],significant increase
same,Neutrophil (10^9/L) (day 10),[4]; [9],1.58 10^9/L
same,WBC (10^9/L) (day 10),[4]; [9],9.5 10^9/L
same,Neutrophil (10^9/L) (day 3),[4]; [10],0.38 10^9/L
same,WBC (10^9/L) (day 3),[4]; [10],1.75 10^9/L
same,Neutrophil (10^9/L) (day 10),[4]; [11],1.03 10^9/L
same,WBC (10^9/L) (day 10),[4]; [11],8.9 10^9/L
same,Neutrophil (10^9/L) (day 3),"[4]; Group 2, tablets in 5% PEG",0.31 10^9/L
same,WBC (10^9/L) (day 3),"[4]; Group 2, tablets in 5% PEG",2.01 10^9/L
same,reversal of cyclophosphamide induced neutropenia,[4]; oral tablets,significantly reverses
same,effect on cyclophosphamide induced decrease in % neutrophil,"[5]; 1 mg/mouse/day subcutaneous, day 5 to day 10",alleviation
same,observed changes in % neutrophil relative to G-CSF treatment,[5]; [7],comparable to that of G-CSF treatment
same,% Neutrophil (day 0),[5],46.00%
same,% Neutrophil (day 3),[5],6.600%
same,% Neutrophil (day 10),"[5]; subcutaneous, day 5 to day 10",23.90%
"G-CSF: Granulocyte Colony Stimulating Factor, FDA approved drug for treating severe neutropenia; comparator (protein, UniProt P09919 31-207, looked up) Granulocyte …: TPLGPASSLPQSFLLKCLEQVRKIQGDGAALQEKLVSECATYKLCHPEELVLLGHSLGIPWAPLSSCPSQALQLAGCLSQLHSGLFLYQGLLQALEGISPELGPTLDTLQLDVADFATTIWQQMEELGMAPALQPTQGAMPAFASAFQRRAGGVLVASHLQSFLEVSYRVLRHLAQP",ALT (IU/L),[3]; subcutaneous,36.17 IU/L
same,AST (IU/L),[3]; subcutaneous,50.54 IU/L
same,% Neutrophil (day 0),[5],46.10%
same,% Neutrophil (day 3),[5],6.700%
same,% Neutrophil (day 10),"[5]; subcutaneous, day 5 to day 10",28.20%
